What follows are molecules tested against T1, recombinant hPTP1B (phosphotyrosine phosphatase 1B) (Homo sapiens, UniProt P18031) (assay: Enzymatic test for inhibition of a phosphatase (phosphopeptide dephosphorylation / p-nitrophenyl phosphate cleavage)). Conditions: Table 3 Biological activity; inhibition of PTP1B; table does not say which substrate format (A phosphopeptide or B pNPP).
T1 construct: but without the carboxy-terminal hydrophobic region (corresponding to 1-299 aa); made in house; host or cells: Sf9 insect cells (baculovirus, Bac-to-Bac, pFASTBAC)
T1 sequence (P18031 1-299): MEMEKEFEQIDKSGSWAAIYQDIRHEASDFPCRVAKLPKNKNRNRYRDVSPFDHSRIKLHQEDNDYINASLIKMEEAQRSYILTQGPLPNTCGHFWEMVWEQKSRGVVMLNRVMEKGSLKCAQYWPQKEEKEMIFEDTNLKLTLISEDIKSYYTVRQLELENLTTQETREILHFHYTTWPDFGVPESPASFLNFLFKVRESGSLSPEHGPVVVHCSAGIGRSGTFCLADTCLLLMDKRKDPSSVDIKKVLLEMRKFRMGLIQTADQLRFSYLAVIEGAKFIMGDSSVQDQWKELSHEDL
Type: biochemical
Experimental: Enzymatic Test Systems for Detecting Inhibition of a Phosphatase
The compounds of the formula I were tested for their phosphatase-inhibiting effect in an in vitro assay. The enzyme preparation and the performance of the assay was carried out as follows.
A) Cell Culture: • Sf9 cells (=Spodoptera frugiperda cell type; obtainable from invitrogen) are cultured in Grace's supplemented medium (Gibco-BRL) with 10% heat-inactivated fetal calf serum (Gibco-BRL) in spinner flasks at 28° C. in accordance with the protocol of Summers and Smith (A Manual for Methods for Baculovirus Vectors and Insect Culture Procedures [Bulletin No. 15555]. Texas A & M University, Texas Agricultural Experiment Station, College Station, Tex., 1987). • Construction of recombinant Baculovirus transfer vectors: cDNA coding for the regulatory and catalytic domains of human PTP1B, but without the carboxy-terminal hydrophobic region (corresponding to 1-299 aa) was obtained by polymerase chain reaction via primers with attached cloning sites and suitable cDNA templates (obtainable for example from invitrogen) and then cloned into baculovirus expression vectors (Amersham Pharmacia Biotech.). The recombinant baculoviruses were prepared with the aid of the Bac-to-Bac baculovirus expression system (obtainable from Gibco-BRL). The gene was cloned into the pFASTBAC donor plasmid (obtainable from Life Technologies). The resulting plasmid was transformed into competent DH10BAC Escherichia coli cells (obtainable from Life Technologies). After transposition and antibiotic selection, the recombinant plasmid DNA was isolated from selected E. coli colonies and then used for the transfection of Sf9 insect cells. The virus particle in the supernatant medium was amplified three times up to a viral stock volume of 500 ml.
B) Production of Recombinant Protein: • Baculovirus infection of a 500 ml spinner culture of Sf9 cells was essentially carried out as described by Summers and Smith (see above). Sf9 cells at a density of 1-3×10^6 cells/ml were pelleted by centrifugation at 300 g for 5 min, the supernatant was removed, and the cells were resuspended in a density of 1×10^7 cells/ml in a suitable recombinant viral stock (MOI 10). After careful shaking at room temperature for 1.5 h, fresh medium was added in order to achieve a cell density of 1×10^6 cells/ml. The cells were then cultured in the suspension at 28° C. for suitable periods after postinfection.
C) Cellular Fractionation and Complete Cell Extracts of Infected Sf9 Cells: • After the postinfection, aliquots were subjected to an analysis of protein expression by SDS-PAGE and Western blot analysis. The cellular fractionation was carried out as described (Cromlish, W. and Kennedy, B. Biochem. Pharmacol. 52: 1777-1785, 1996). Complete cell extracts were obtained from 1 ml aliquots of the infected Sf9 cells after certain times postinfection. The pelleted cells (300×g, 5 min) were washed once in phosphate-buffered saline (4° C.), resuspended in 50 μl of water and disrupted by repeated freezing/thawing. Protein concentrations were determined with the aid of the Bradford method and bovine serum albumin as standard.
A) Dephosphorylation of a Phosphopeptide: • This assay is based on the release of phosphate from a consensus substrate peptide which is detected in the nanomolar concentration range by the malachite green/ammonium molybdate method (Lanzetta, P. A., Alvarez, L. J., Reinach, P. S., Candia, O. A. Anal Biochem. 100: 95-97, 1979) adapted for the microtiter plate format. The dodecatrisphosphopeptide TRDIYETDYYRK (Biotrend, Cologne) corresponds to amino acids 1142-1153 of the catalytic domain of the insulin receptor and is (auto)phosphorylated on tyrosine residues 1146, 1150 and 1151. […]

| Structure (SMILES) | IC50 [nM] |
| --- | --- |
| COc1ccccc1CN(Cc1ccc(-c2ccc(O)c(C(=O)O)c2)cc1)C(=O)c1ccc(Br)cc1 [Example 1, 4′-{[(4-Bromobenzoyl)-(2-methoxybenzyl)amino]methyl}-4-hydroxybiphenyl-3-carboxylic acid] | 1200 |
| COc1ccc(CN(Cc2ccc(-c3ccc(O)c(C(=O)O)c3)cc2)C(=O)c2ccc3c(c2)OCO3)cc1 [Example 2, 4′-{[(Benzo[1,3]dioxole-5-carbonyl)-(4-methoxybenzyl)amino]-methyl}-4-hydroxybiphenyl-3-carboxylic acid] | 1200 |
| O=C(O)c1cc(-c2ccc(CN(Cc3ccccc3)C(=O)c3ccc4c(c3)OCO4)cc2)ccc1O [Example 3, 4′-{[(Benzo[1,3]dioxole-5-carbonyl)benzylamino]methyl}-4-hydroxybiphenyl-3-carboxylic acid] | 1500 |
| COc1cccc(C(=O)N(Cc2ccc(-c3ccc(O)c(C(=O)O)c3)cc2)Cc2ccccc2OC)c1 [Example 4, 4-Hydroxy-4′-{[(3-methoxybenzoyl)-(2-methoxybenzyl)amino]-methyl}biphenyl-3-carboxylic acid] | 1400 |
| O=C(O)c1cc(-c2ccc(CN(CC3CC3)C(=O)C3CCCCC3)cc2)ccc1O [Example 5, 4′-[(Cyclohexanecarbonylcyclopropylmethylamino)methyl]-4-hydroxybiphenyl-3-carboxylic acid] | 1600 |
| COc1ccccc1CN(Cc1ccc(-c2ccc(O)c(C(=O)O)c2)cc1)C(=O)C1CCCCC1 [Example 6, 4′-{[Cyclohexanecarbonyl-(2-methoxybenzyl)amino]methyl}-4-hydroxybiphenyl-3-carboxylic acid] | 1300 |
| Cc1ccc(CN(Cc2ccc(-c3ccc(O)c(C(=O)O)c3)cc2)C(=O)c2ccc(Br)cc2)cc1 [Example 7, 4′-{[(4-Bromobenzoyl)-(4-methylbenzyl)amino]methyl}-4-hydroxybiphenyl-3-carboxylic acid] | 1000 |
| CCCCC(=O)N(Cc1ccc(-c2ccc(O)c(C(=O)O)c2)cc1)CC1CC1 [Example 8, 4′-[(Cyclopropylmethylpentanoylamino)methyl]-4-hydroxybiphenyl-3-carboxylic acid] | 1900 |
| Cc1ccc(CN(Cc2ccc(-c3ccc(O)c(C(=O)O)c3)cc2)C(=O)C2CCCCC2)cc1 [Example 10, 4′-{[Cyclohexanecarbonyl-(4-methylbenzyl)amino]methyl}-4-hydroxybiphenyl-3-carboxylic acid] | 1600 |
| O=C(O)c1cc(-c2ccc(CN(CCc3ccccc3)C(=O)c3ccc4c(c3)OCO4)cc2)ccc1O [Example 11, 4′-{[(Benzo[1,3]dioxole-5-carbonyl)phenethylamino]methyl}-4-hydroxybiphenyl-3-carboxylic acid] | 1600 |
| COc1cccc(C(=O)N(Cc2ccccc2)Cc2ccc(-c3ccc(O)c(C(=O)O)c3)cc2)c1 [Example 12, 4′-{[Benzyl-(3-methoxybenzoyl)amino]methyl}-4-hydroxybiphenyl-3-carboxylic acid] | 1600 |
| COc1cccc(C(=O)N(Cc2ccc(C)cc2)Cc2ccc(-c3ccc(O)c(C(=O)O)c3)cc2)c1 [Example 13, 4-Hydroxy-4′-{[(3-methoxybenzoyl)-(4-methylbenzyl)amino]methyl}-biphenyl-3-carboxylic acid] | 1700 |
| O=C(O)c1cc(-c2ccc(CN(CC3CC3)C(=O)c3ccc4c(c3)OCO4)cc2)ccc1O [Example 14, 4′-{[(Benzo[1,3]dioxole-5-carbonyl)cyclopropylmethylamino]methyl}-4-hydroxybiphenyl-3-carboxylic acid] | 1800 |
| CCCCCN(Cc1ccc(-c2ccc(O)c(C(=O)O)c2)cc1)C(=O)c1ccc2c(c1)OCO2 [Example 15, 4′-{[(Benzo[1,3]dioxole-5-carbonyl)pentylamino]methyl}-4-hydroxybiphenyl-3-carboxylic acid] | 1500 |
| O=C(O)c1cc(-c2ccc(CN(Cc3ccc(F)cc3)C(=O)c3ccc4c(c3)OCO4)cc2)ccc1O [Example 16, 4′-{[(Benzo[1,3]dioxole-5-carbonyl)-(4-fluorobenzyl)amino]methyl}-4-hydroxy-biphenyl-3-carboxylic acid] | 1900 |
| COc1cccc(C(=O)N(Cc2ccc(F)cc2)Cc2ccc(-c3ccc(O)c(C(=O)O)c3)cc2)c1 [Example 17, 4′-{[(4-Fluorobenzyl)-(3-methoxybenzoyl)amino]methyl}-4-hydroxybiphenyl-3-carboxylic acid] | 1600 |
| O=C(O)c1cc(-c2ccc(CN(Cc3ccc(F)cc3)C(=O)/C=C/c3ccccc3)cc2)ccc1O [Example 18, 4′-{[(4-Fluorobenzyl)-(3-phenylacryloyl)amino]methyl}-4-hydroxybiphenyl-3-carboxylic acid] | 1450 |
| Cc1ccc(CN(Cc2ccc(-c3ccc(O)c(C(=O)O)c3)cc2)C(=O)c2ccc3c(c2)OCO3)cc1 [Example 19, 4′-{[(Benzo[1,3]dioxole-5-carbonyl)-(4-methylbenzyl)amino]methyl}-4-hydroxy-biphenyl-3-carboxylic acid] | 1280 |
| O=C(O)c1cc(-c2ccc(CN(C(=O)c3ccc4c(c3)OCO4)C3CCCC3)cc2)ccc1O [Example 20, 4′-{[(Benzo[1,3]dioxole-5-carbonyl)cyclopentylamino]methyl}-4-hydroxy-biphenyl-3-carboxylic acid] | 1800 |
| O=C(O)c1cc(-c2ccc(CN(Cc3ccccc3)C(=O)c3ccc(Br)cc3)cc2)ccc1O [Example 21, 4′-{[Benzyl-(4-bromobenzoyl)amino]methyl}-4-hydroxybiphenyl-3-carboxylic acid] | 600 |
| O=C(O)c1cc(-c2ccc(CN(Cc3ccccc3)C(=O)c3ccco3)cc2)ccc1O [Example 22, 4′-{[Benzyl(furan-2-carbonyl)amino]methyl}-4-hydroxybiphenyl-3-carboxylic acid] | 1300 |
| O=C(O)c1cc(-c2ccc(CN(Cc3ccc(F)cc3)C(=O)c3ccc(Br)cc3)cc2)ccc1O [Example 23, 4′-{[(4-Bromobenzoyl)-(4-fluorobenzyl)amino]methyl}-4-hydroxybiphenyl-3-carboxylic acid] | 500 |
| CCCCC(=O)N(Cc1ccc(OC)cc1)Cc1ccc(-c2ccc(O)c(C(=O)O)c2)cc1 [Example 24, 4-Hydroxy-4′-{[(4-methoxybenzyl)pentanoylamino]methyl}-biphenyl-3-carboxylic acid] | 600 |
